Experimental data: patent publication US4166852A, “Piperazino-pyrimidines and their use as spasmolytic agents” (priority 1974, dated 1979)
Values after ≈ are worked out from the molar mass of the structure shown. Counter-ions that a name gives are not always drawn. Like-named read-outs stand apart in the source and are kept apart here.

Key:
[1] = acute toxicity, LD 50, CD 1 mice; format: in vivo; conditions: mouse, in vivo
Description: (§1) The acute toxicities of the compounds according to the invention have been determined on CD 1 (Charles RIVER) mice by intravenous and oral methods. The LD 50 of each compound has been calculated by the cumulative method of J. J. Reed and H. Muench, (Amer. J. Hyg., 1938, 27, 493).

[2] = system: serotonine plantar oedema; assay: anti-serotonine activity, serotonine plantar oedema; format: in vivo, CD (Charles RIVER) rats; conditions: po; rat, orally; read-out: Serotonine plantar oedema AD 50
Description: (§2) The anti-serotonine activities of the compounds according to the invention have been shown by oral administration to the CD (Charles RIVER) rats using the technique of the serotonine plantar oedema (W. Theobald and R. Domenjoz--Arzneimittel Forsch, 8, 18, 1958 and with the CD 1 (Charles RIVER) mice using the technique known as "head twitch" according to S. J. Corne, R. W. Pickering and B. T. Warner, Brit. J. Pharmacol., 20, 106, (1963). The anti-serotonine activity has also been determined on the one hand on the tricoloured guinea-pig, given intravenously, according to a method derived from H. Konzet and R. Rossler, Arch. exp. Pathol, Pharmakol., 195, 71, (1940) and on the other hand in vitro with respect to the serotonine spasm of the isolated uterus of the rat according to the technique of A. Fanchamps, W. Doepfener, H. Weidman and A. Cerletti, Schw. Med. Worsch, 90, 1940, (1960).

dogs = assay: anti-emetic activity, apomorphine vomiting test on dogs; format: in vivo; conditions: for ED50: Canis lupus familiaris, po, read-out: Anti-emetic activity on dogs ED 50
Description: The anti-emetic properties of the compounds according to the invention have been shown by oral administration of apomorphine to dogs in the vomiting test according to G. Chen and C. J. Ensor, Pharmacol. exp. Therap., 98, 24 (1950).

mice [3] = assay: analgesic activity, painful abdominal torsions test with phenylbenzoquinone; format: in vivo, CD 1 (Charles RIVER) mice; conditions: for ED50: Mus musculus, po, mice, orally, read-out: Phenylbenzoquinone test on mice AD 50
Description: The analgesic properties of the products according to the invention have been shown with CD 1 (Charles RIVER) mice in the painful abdominal torsions test with phenylbenzoquinone according to the technique of E. Siegmund, R. Cadmus and Go.Lu--Proc. Soc. Exp. Biol. Med., 95, 729, (1957).

serotonine bronchospasms = assay: anti-serotonine activity, serotonine bronchospasms; format: in vivo, tricoloured guinea-pig; conditions: Cavia porcellus, iv; guinea pig, intravenously; read-out: Serotonine bronchospasms ED 50
Description: as §2

mouse [4] = assay: traction test, mouse; format: in vivo, CD1 (Charles RIVER) mice; conditions: po, orally, read-out: Traction AD 50
Description: (§3) The neuroloptic effects of the compounds according to the invention have been shown with respect to the CD rat (Charles RIVER) taken orally in the catalepsy test according to S. COURVOISIER, R. DUCROT, and L. JULOU, in Psychotropic Drugs, S. GARATTINI and V. GHETTI, Edit.--ELSEVIER Publ. Co., AMSTERDAM, LONDON, NEW YORK, PRINCETON, 1957 P. 373 and also in the traction test of CD1 (Charles RIVER) mice taken orally S. COURVOISIER, Quart. Rev. Psychiat. Neurol. 17, 25 (1956), on the one hand and also in the spontaneous motility test.

head twitch = assay: anti-serotonine activity, head twitch; format: in vivo, CD 1 (Charles RIVER) mice; conditions: Mus musculus, po; mice, orally; read-out: "Head-twitch" AD 50
Description: as §2

rat = assay: catalepsy test, rat; format: in vivo, CD rat (Charles RIVER); conditions: po, orally, read-out: Catalepsy AD 50
Description: as §3

[5] = system: isolated duodenum of the rabbit (barium chloride); assay: spasmolytic effect on isolated duodenum, barium chloride spasm; format: cell-based; conditions: Oryctolagus cuniculus, read-out: Spasmolytic effects EC 50 with respect to barium chloride
Description: (§4) Ges. Physiol., 102, 123, (1904) with respect to the spasms of the isolated duodenum of rabbits caused either by acetylchlorine for the spasmolytic nemotropes or by barium chloride for the spasmolytic musculotropes.

[6] = system: isolated duodenum of the rabbit (acetylcholine); assay: spasmolytic effect on isolated duodenum, acetylcholine spasm; format: cell-based; conditions: Oryctolagus cuniculus, read-out: Spasmolytic effects EC 50 with respect to acetylcholine
Description: as §4

mice [7] = assay: acute toxicity, LD 50, CD 1 mice; format: in vivo; conditions: intravenous
Description: as §1

serotonine = assay: antiserotonine properties on the whole (all four tests); design: species or system rat, mice, guinea pig; conditions: comparison within the series
Description: as §2

[8] = system: isolated duodenum of the rabbit; assay: spasmolytic activity overall; format: cell-based; conditions: isolated duodenum of rabbits
Description: as §4

mouse [9] = assay: spontaneous motility test (hypomotility), mouse; format: in vivo, mice; conditions: po, 1 h, orally, 60 minutes before measuring, 50% reduction of mean motility, first 5 minutes, read-out: Hypomotility ED 50
Description: as §3
This latter technique comprises keeping an account of the displacements of the mice by means of a floor of metal strips which enables the spontaneous activity of the animals to be recorded during the first 5 minutes subsequent to their being introduced into the measuring chamber. The products are dispensed 60 minutes before measuring is effected and 10 mice are used per dose. The results are expressed in ED 50 which represents the dose of substance capable of reducing the mean motility of the treated animals by 50% relative to that of the sample group which has only received the dispensing carrier.

solubility = format: physicochemical
[10] = intravenous, read-out: Acute toxicity for mice LD 50, intravenous
[11] = oral, read-out: Acute toxicity for mice LD 50, orally

Structure (SMILES) | LD50 [1, 10] | LD50 [1, 11] | ED50 [2] | ED50 (mice [3]) | ED50 (serotonine bronchospasms) | ED50 (head twitch) | ED50 (rat) | EC50 [5] | EC50 [6] | Acute toxicity for mice LD 50, intravenous (mice [7]) | ED50 (dogs; dogs, orally, apomorphine) | ED50 (mouse [9]) | solubility in ethanol (alcohol) (solubility) | solubility in water (solubility) | further results
CCNc1nc(Cl)c(SC)c(N2CCN(C)CC2)n1 [Example 1, 2-Ethylamino-4-N-methyl-piperazino-6-chloro-5-methylthio-pyrimidine hydrochloride] | 41 mg/kg | ~200 mg/kg | 160 mg/kg | 35 mg/kg | 6 mg/kg | 30 mg/kg | 85 mg/kg | 1.6 µg/mL | 5 µg/mL | – | – | – | – | – | ED50 (dogs): 0.35 mg/kg; ED50 (mouse [4]): > 35 mg/kg
CSc1c(Cl)nc(Nc2ccccc2)nc1N1CCN(C)CC1 [Example 4, 2-phenylamino-4-N-methylpiperazino-6-chloro-5-methylthio-pyrimidine hydrochloride] | – | ~600 mg/kg | – | – | – | 60 mg/kg | – | – | – | insoluble | – | – | – | – | –
COCCCNc1nc(Cl)c(SC)c(N2CCN(C)CC2)n1 [Example 5, 3'-Methoxy-2-propylamino-4-N-methylpiperazino-6-chloro-5-methylthio-pyrimidine] | 56 mg/kg | ~200 mg/kg | 90 mg/kg | 35 mg/kg | – | – | 175 mg/kg | 1.3 µg/mL (≈ 3.76 µM) | > 5 µg/mL | – | – | – | – | – | analgesic activity ranking (mice [3]; comparison within the series): the most active; antiserotonine properties ranking (serotonine): the greatest antiserotonine properties on the whole; ED50 (mouse [4]): 30 mg/kg; spasmolytic activity type / ranking [8]: most effective
CC(=O)Nc1nc(Cl)c(C)c(N2CCN(C)CC2)n1 [Example 14, 2-Acetylamino-4-N-methylpiperazino-5-methyl-6-chloro-pyrimidine] | – | ~270 mg/kg | – | 35 mg/kg | – | – | – | – | – | insoluble | 3.7 mg/kg | – | – | – | –
CSc1c(Cl)nc(N(C)C(C)=O)nc1N1CCN(C)CC1 [Example 16, 2-(N-methyl-N-acetyl)amino-4-N-methylpiperazino-5-methylthio-6-chloro-pyrimidine hydrochloride] | – | ~525 mg/kg | 100 mg/kg | – | – | > 100 mg/kg | – | – | – | insoluble | – | – | – | – | –
CCOCCOc1nc(NC)nc(N2CCN(C)CC2)c1SC [Example 20, 2-Methylamino-4-N-methylpiperazino-5-methylthio-6-β-ethoxyethoxy-pyrimidine hydrochloride] | – | ~265 mg/kg | – | – | – | – | – | – | – | insoluble | – | – | – | – | –
CCCCCCNc1nc(Cl)c(SC)c(N2CCN(C)CC2)n1 [Example 25, 2-n.hexylamino-4-N-methylpiperazino-6-chloro-5-methylthiopyrimidine] | 70 mg/kg | – | ~300 mg/kg | 85 mg/kg | 0.18 mg/kg | 55 mg/kg | > 300 mg/kg | 0.2 µg/mL (≈ 0.559 µM) | 1 µg/mL (≈ 2.79 µM) | – | 5 mg/kg | 70 mg/kg | very soluble | insoluble | solubility in dilute hydrochloric acid (solubility): soluble; solubility in solvents (solubility; solvents): very soluble; ED50 (mouse [4]): > 300 mg/kg; spasmolytic activity type / ranking [8]: most effective
CCCCN1CCN(c2nc(N(C)Cc3ccccc3)nc(Cl)c2SC)CC1 [Example 27, 2-(N-methyl N-benzylamino)-4-N-butylpiperazino-5-methylthio-6-chloropyrimidine hydrochloride] | – | – | > 400 mg/kg | 400 mg/kg | – | – | – | – | – | insoluble | 1.5 mg/kg | 160 mg/kg | – | insoluble | solubility in dimethylsulphoxide (solubility; dimethylsulphoxide): soluble
CCCCN1CCN(c2nc(N3CCOCC3)nc(Cl)c2SC)CC1 [Example 29, 2-Morpholino-4-N-butylpiperazino-5-methylthio-6-chloropyrimidine] | – | ~600 mg/kg | – | 55 mg/kg | – | 80 mg/kg | – | – | – | insoluble | > 5 mg/kg | 50 mg/kg | soluble | insoluble | solubility in dilute methanesulphonic acid (solubility; dilute methanesulphonic acid): soluble
CCCNc1nc(Cl)c(SC)c(N2CCN(C)CC2)n1 [Example 30, 2-n.propylamino-4-N-methylpiperazino-6-chloro-5-methylthiopyrimidine] | 60 mg/kg | ~200 mg/kg | – | > 400 mg/kg | 0.05 mg/kg | 10 mg/kg | > 300 mg/kg | 0.2 µg/mL (≈ 0.633 µM) | 9 µg/mL (≈ 28.5 µM) | – | 0.16 mg/kg | 25 mg/kg | soluble | insoluble | anti-vomiting ranking (dogs; comparison within the series, dogs): the most strong anti-vomiting agents; antiserotonine properties ranking (serotonine): the greatest antiserotonine properties on the whole; solubility in dilute hydrochloric acid (solubility): soluble; spasmolytic activity type / ranking [8]: most effective
CCCCNc1nc(Cl)c(SC)c(N2CCN(C)CC2)n1 [Example 31, 2-n.butylamino-4-N-methylpiperazino-6-chloro-5-methylthiopyrimidine] | 98 mg/kg | ~225 mg/kg | > 100 mg/kg | 100 mg/kg | 0.1 mg/kg | 13 mg/kg | – | 0.3 µg/mL (≈ 0.909 µM) | 1.2 µg/mL (≈ 3.64 µM) | – | ~3 mg/kg | 20 mg/kg | soluble | insoluble | antiserotonine properties ranking (serotonine): the greatest antiserotonine properties on the whole; solubility in dilute hydrochloric acid (solubility): soluble
